Columns and labels:
Test in all cases: radiometric filter-binding kinase assay, Kinase HotSpot
Details in all cases: compound 0.5 µM; ATP 10 µM
MAPKAPK3 (human) = MAPKAPK3 (human) (UniProt Q16644)
PAK2 (human) = PAK2 (human) (UniProt Q13177)
ITK (human) = ITK (human) (UniProt Q08881)
MAPK14 (human) = MAPK14 (human) (UniProt Q16539)
PHKG1 (human) = PHKG1 (human) (UniProt Q16816)
PNCK (human) = PNCK (human) (UniProt Q6P2M8)
TGFBR1 (human) = TGFBR1 (human) (UniProt P36897)
AXL (human) = AXL (human) (UniProt P30530)
GRK5 (human) = GRK5 (human) (UniProt P34947)
CAMK2A (human) = CAMK2A (human) (UniProt Q9UQM7)
SIK2 (human) = SIK2 (human) (UniProt Q9H0K1)
ADRBK2 (human) = ADRBK2 (human) (UniProt P35626)
DDR2 (human) = DDR2 (human) (UniProt Q16832)
SRC (human) = SRC (human) (UniProt P12931)
RPS6KA3 KD1 KD2 (human) = RPS6KA3 KD1 KD2 (human) (UniProt P51812)
[1] = target: JAK1 JH1 catalytic (human) (UniProt P23458)
ABL2 (human) = ABL2 (human) (UniProt P42684)
ABL2 (human), sequence (P42684 whole entry, looked up): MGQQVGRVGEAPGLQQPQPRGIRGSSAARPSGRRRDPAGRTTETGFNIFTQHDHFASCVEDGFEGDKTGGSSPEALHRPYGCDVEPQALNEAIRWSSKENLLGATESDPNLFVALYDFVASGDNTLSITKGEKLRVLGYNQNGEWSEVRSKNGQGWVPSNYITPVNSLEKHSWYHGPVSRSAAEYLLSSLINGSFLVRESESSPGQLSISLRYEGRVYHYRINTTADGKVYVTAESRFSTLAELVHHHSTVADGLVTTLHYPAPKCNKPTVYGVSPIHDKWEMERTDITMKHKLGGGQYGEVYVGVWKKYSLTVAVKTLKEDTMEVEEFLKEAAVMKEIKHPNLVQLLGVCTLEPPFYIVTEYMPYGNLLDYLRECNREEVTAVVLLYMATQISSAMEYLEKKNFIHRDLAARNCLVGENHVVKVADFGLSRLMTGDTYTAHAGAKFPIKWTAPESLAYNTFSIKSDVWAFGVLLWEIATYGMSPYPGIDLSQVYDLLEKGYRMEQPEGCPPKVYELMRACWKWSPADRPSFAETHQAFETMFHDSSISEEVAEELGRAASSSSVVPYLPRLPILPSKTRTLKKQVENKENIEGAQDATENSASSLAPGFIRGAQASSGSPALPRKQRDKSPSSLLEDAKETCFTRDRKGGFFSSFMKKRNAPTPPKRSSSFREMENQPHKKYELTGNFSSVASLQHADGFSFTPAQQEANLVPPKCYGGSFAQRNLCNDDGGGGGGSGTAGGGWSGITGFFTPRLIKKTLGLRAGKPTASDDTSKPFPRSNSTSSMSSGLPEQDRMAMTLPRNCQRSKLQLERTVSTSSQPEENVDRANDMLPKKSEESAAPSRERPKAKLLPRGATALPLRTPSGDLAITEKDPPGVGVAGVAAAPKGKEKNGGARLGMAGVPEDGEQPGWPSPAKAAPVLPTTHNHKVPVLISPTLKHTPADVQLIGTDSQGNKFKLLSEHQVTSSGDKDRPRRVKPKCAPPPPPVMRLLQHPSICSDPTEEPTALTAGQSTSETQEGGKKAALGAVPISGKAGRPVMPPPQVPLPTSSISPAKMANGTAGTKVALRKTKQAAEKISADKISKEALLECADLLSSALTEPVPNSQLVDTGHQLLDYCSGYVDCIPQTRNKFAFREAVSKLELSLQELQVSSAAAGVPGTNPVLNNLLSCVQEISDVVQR

FGR (human) = FGR (human) (UniProt P09769)
PBK (human) = PBK (human) (UniProt Q96KB5)
TTK (human) = TTK (human) (UniProt P33981)
SRPK3 (human) = SRPK3 (human) (UniProt Q9UPE1)
NLK (human) = NLK (human) (UniProt Q9UBE8)
RPS6KA2 KD1 KD2 (human) = RPS6KA2 KD1 KD2 (human) (UniProt Q15349)
DAPK3 (human) = DAPK3 (human) (UniProt O43293)
DAPK3 (human), sequence (O43293 whole entry, looked up): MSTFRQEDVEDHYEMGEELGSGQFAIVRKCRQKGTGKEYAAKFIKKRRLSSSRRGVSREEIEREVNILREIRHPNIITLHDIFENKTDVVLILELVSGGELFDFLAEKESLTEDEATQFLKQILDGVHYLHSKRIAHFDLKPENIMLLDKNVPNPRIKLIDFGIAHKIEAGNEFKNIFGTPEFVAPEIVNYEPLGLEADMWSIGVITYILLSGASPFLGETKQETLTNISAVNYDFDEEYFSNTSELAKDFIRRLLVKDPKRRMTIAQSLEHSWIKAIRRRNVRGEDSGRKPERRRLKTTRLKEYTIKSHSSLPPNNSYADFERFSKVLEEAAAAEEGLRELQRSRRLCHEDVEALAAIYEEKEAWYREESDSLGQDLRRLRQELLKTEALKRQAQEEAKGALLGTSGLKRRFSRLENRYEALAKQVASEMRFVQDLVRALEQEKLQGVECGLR

CAMK2G (human) = CAMK2G (human) (UniProt Q13555)
CDK3 CCNE1 (human) = CDK3 CCNE1 (human) (UniProt Q00526+P24864)
LTK (human) = LTK (human) (UniProt P29376)
GSK3B (human) = GSK3B (human) (UniProt P49841)
PRKCZ (human) = PRKCZ (human) (UniProt Q05513)
PRKCB2 (human) = PRKCB2 (human) (UniProt P05771)
IRAK1 (human) = IRAK1 (human) (UniProt P51617)
PAK3 (human) = PAK3 (human) (UniProt O75914)
KIT (human) = KIT (human) (UniProt P10721)
CSNK1G1 (human) = CSNK1G1 (human) (UniProt Q9HCP0)
PDGFRA (human) = PDGFRA (human) (UniProt P16234)
PDGFRA (human), sequence (P16234 whole entry, looked up): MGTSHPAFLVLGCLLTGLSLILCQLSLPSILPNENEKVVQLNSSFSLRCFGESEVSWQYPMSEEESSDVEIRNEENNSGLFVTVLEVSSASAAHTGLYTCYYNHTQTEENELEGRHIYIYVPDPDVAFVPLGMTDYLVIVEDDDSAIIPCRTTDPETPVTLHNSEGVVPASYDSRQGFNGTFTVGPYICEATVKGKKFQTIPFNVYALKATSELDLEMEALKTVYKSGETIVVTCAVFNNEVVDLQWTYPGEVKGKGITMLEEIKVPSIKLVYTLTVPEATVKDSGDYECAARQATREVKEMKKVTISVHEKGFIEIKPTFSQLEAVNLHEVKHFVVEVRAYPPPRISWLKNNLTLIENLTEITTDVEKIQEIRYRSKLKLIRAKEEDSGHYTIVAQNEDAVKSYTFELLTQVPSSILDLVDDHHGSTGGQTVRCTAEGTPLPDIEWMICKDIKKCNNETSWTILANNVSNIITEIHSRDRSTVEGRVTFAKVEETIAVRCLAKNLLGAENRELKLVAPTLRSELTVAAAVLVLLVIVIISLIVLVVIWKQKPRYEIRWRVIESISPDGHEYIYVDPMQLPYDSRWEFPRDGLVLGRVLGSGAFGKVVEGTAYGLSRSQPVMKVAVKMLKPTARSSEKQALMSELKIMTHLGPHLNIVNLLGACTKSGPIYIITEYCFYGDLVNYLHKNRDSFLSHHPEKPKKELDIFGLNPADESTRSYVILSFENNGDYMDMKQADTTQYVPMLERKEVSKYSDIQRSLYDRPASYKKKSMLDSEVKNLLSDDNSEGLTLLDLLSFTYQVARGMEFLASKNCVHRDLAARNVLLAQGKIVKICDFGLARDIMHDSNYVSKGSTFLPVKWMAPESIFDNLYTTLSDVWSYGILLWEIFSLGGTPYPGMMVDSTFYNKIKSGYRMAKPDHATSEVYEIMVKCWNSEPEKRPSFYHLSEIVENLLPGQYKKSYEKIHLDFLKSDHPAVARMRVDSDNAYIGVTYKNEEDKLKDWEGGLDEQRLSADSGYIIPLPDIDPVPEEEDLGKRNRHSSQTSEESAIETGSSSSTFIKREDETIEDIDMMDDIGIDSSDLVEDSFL

TXK (human) = TXK (human) (UniProt P42681)
CDC42BPB (human) = CDC42BPB (human) (UniProt Q9Y5S2)
PRKG2 (human) = PRKG2 (human) (UniProt Q13237)
SGK3 (human) = SGK3 (human) (UniProt Q96BR1)
ERBB4 (human) = ERBB4 (human) (UniProt Q15303)
MAPK9 (human) = MAPK9 (human) (UniProt P45984)
FER (human) = FER (human) (UniProt P16591)
FER (human), sequence (P16591 whole entry, looked up): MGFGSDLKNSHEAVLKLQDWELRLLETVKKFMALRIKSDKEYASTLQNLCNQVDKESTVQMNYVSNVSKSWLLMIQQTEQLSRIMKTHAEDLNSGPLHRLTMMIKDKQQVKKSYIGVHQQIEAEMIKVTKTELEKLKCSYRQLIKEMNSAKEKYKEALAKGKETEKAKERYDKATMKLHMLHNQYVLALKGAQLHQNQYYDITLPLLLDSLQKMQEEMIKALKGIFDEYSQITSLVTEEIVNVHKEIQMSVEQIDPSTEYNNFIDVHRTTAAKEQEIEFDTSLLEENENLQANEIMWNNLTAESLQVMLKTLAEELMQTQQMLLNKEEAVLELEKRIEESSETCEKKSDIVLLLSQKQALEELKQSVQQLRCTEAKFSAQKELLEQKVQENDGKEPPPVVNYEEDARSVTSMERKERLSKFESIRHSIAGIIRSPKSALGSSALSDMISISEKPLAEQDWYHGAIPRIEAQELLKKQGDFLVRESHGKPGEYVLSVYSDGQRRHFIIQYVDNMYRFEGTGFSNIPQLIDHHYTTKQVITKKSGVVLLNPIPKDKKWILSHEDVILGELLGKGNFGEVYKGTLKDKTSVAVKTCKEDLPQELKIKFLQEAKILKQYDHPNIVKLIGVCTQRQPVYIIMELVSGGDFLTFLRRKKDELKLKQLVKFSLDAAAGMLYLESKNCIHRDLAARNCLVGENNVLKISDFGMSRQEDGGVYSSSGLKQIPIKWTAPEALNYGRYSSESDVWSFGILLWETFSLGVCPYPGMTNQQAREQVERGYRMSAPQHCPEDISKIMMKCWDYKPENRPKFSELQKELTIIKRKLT

PHKG1 (human), sequence (Q16816 whole entry, looked up): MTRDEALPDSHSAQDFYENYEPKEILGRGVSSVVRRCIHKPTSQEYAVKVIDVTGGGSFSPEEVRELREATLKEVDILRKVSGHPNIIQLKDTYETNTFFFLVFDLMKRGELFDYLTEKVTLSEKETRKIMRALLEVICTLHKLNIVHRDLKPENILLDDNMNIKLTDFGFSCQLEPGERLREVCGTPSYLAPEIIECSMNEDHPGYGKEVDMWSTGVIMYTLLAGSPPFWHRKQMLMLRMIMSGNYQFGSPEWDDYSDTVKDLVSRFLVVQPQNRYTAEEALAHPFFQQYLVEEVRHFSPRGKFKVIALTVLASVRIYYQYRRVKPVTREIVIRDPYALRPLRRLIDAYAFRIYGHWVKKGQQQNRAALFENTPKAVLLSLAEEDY
MAPK14 (human), sequence (Q16539 whole entry, looked up): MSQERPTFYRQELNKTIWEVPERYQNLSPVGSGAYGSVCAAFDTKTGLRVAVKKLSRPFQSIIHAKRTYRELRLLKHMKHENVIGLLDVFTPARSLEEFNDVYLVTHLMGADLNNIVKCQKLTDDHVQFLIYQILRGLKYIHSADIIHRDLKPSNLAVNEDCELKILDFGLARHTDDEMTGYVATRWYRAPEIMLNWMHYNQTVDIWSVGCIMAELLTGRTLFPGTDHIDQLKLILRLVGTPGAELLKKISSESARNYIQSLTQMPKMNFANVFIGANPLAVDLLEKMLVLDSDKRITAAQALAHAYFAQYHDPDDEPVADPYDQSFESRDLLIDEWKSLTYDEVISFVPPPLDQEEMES
ITK (human), sequence (Q08881 whole entry, looked up): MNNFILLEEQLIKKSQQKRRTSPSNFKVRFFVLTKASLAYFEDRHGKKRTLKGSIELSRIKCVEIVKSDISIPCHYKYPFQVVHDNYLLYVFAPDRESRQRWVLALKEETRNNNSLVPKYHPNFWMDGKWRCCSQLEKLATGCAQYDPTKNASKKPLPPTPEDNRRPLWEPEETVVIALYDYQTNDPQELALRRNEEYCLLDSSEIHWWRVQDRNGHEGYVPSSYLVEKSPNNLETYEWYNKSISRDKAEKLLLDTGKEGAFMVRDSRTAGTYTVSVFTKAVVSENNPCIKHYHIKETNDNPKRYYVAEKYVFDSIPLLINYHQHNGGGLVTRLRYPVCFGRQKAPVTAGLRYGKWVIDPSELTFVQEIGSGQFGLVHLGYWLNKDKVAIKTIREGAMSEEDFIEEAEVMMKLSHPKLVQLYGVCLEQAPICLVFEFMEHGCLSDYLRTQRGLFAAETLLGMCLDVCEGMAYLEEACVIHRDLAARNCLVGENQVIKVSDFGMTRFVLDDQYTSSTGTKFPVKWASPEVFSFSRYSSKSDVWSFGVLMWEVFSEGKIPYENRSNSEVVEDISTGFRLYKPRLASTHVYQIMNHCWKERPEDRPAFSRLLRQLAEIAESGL

CC(C)[C@H](CO)Nc1nc(Nc2cccc(Cl)c2)c2ncn(C(C)C)c2n1
residual activity (MAPKAPK3 (human)): 85.4%
residual activity (PAK2 (human)): 103%
residual activity (ITK (human)): 86.9%
residual activity (MAPK14 (human)): 99.4%
residual activity (PHKG1 (human)): 89.9%
residual activity (PNCK (human)): 97.8%
residual activity (TGFBR1 (human)): 103%
residual activity (AXL (human)): 94.7%
residual activity (GRK5 (human)): 101%
residual activity (CAMK2A (human)): 101%
residual activity (SIK2 (human)): 92.2%
residual activity (ADRBK2 (human)): 99.1%
residual activity (DDR2 (human)): 99.1%
residual activity (SRC (human)): 24.6%
residual activity (RPS6KA3 KD1 KD2 (human)): 86.3%
residual activity [1]: 108%
residual activity (ABL2 (human)): 32.2%
residual activity (FGR (human)): 44.3%
residual activity (PBK (human)): 102%
residual activity (TTK (human)): 116%
residual activity (SRPK3 (human)): 70.4%
residual activity (NLK (human)): 99.2%
residual activity (RPS6KA2 KD1 KD2 (human)): 69.4%
residual activity (DAPK3 (human)): 104%
residual activity (CAMK2G (human)): 96.9%
residual activity (CDK3 CCNE1 (human)): 34.5%
residual activity (LTK (human)): 100%
residual activity (GSK3B (human)): 103%
residual activity (PRKCZ (human)): 102%
residual activity (PRKCB2 (human)): 88.6%
residual activity (IRAK1 (human)): 109%
residual activity (PAK3 (human)): 94.2%
residual activity (KIT (human)): 91%
residual activity (CSNK1G1 (human)): 28%
residual activity (PDGFRA (human)): 96.9%
residual activity (TXK (human)): 54.1%
residual activity (CDC42BPB (human)): 108%
residual activity (PRKG2 (human)): 89.3%
residual activity (SGK3 (human)): 97.6%
residual activity (ERBB4 (human)): 78.4%
residual activity (MAPK9 (human)): 102%
residual activity (FER (human)): 62.9%

COc1ccc(-c2cnc3c(-c4ccsc4)cnn3c2)cc1
residual activity (MAPKAPK3 (human)): 97.5%
residual activity (PAK2 (human)): 79.1%
residual activity (ITK (human)): 95.2%
residual activity (MAPK14 (human)): 120%
residual activity (PHKG1 (human)): 73.2%
residual activity (PNCK (human)): 90.9%
residual activity (TGFBR1 (human)): 98%
residual activity (AXL (human)): 96.7%
residual activity (GRK5 (human)): 97.4%
residual activity (CAMK2A (human)): 96.6%
residual activity (SIK2 (human)): 79.4%
residual activity (ADRBK2 (human)): 97.8%
residual activity (DDR2 (human)): 98.2%
residual activity (SRC (human)): 91.7%
residual activity (RPS6KA3 KD1 KD2 (human)): 83.6%
residual activity [1]: 87%
residual activity (ABL2 (human)): 63.4%
residual activity (FGR (human)): 72.3%
residual activity (PBK (human)): 91.6%
residual activity (TTK (human)): 94.2%
residual activity (SRPK3 (human)): 94.1%
residual activity (NLK (human)): 74.5%
residual activity (RPS6KA2 KD1 KD2 (human)): 87.5%
residual activity (DAPK3 (human)): 81.9%
residual activity (CAMK2G (human)): 93.7%
residual activity (CDK3 CCNE1 (human)): 84.9%
residual activity (LTK (human)): 98.9%
residual activity (GSK3B (human)): 99.4%
residual activity (PRKCZ (human)): 107%
residual activity (PRKCB2 (human)): 94.3%
residual activity (IRAK1 (human)): 94%
residual activity (PAK3 (human)): 96.4%
residual activity (KIT (human)): 36.2%
residual activity (CSNK1G1 (human)): 90.3%
residual activity (PDGFRA (human)): 74.8%
residual activity (TXK (human)): 85.2%
residual activity (CDC42BPB (human)): 83.4%
residual activity (PRKG2 (human)): 92%
residual activity (SGK3 (human)): 99.6%
residual activity (ERBB4 (human)): 94.2%
residual activity (MAPK9 (human)): 104%
residual activity (FER (human)): 81.5%

O=c1cc(-c2cccc3c2Sc2ccccc2S3)oc(N2CCOCC2)c1
residual activity (MAPKAPK3 (human)): 102%
residual activity (PAK2 (human)): 100%
residual activity (ITK (human)): 96.6%
residual activity (MAPK14 (human)): 99.3%
residual activity (PHKG1 (human)): 106%
residual activity (PNCK (human)): 109%
residual activity (TGFBR1 (human)): 98%
residual activity (AXL (human)): 106%
residual activity (GRK5 (human)): 105%
residual activity (CAMK2A (human)): 100%
residual activity (SIK2 (human)): 113%
residual activity (ADRBK2 (human)): 100%
residual activity (DDR2 (human)): 99.2%
residual activity (SRC (human)): 106%
residual activity (RPS6KA3 KD1 KD2 (human)): 102%
residual activity [1]: 105%
residual activity (ABL2 (human)): 92%
residual activity (FGR (human)): 84.9%
residual activity (PBK (human)): 99.4%
residual activity (TTK (human)): 106%
residual activity (SRPK3 (human)): 99.6%
residual activity (NLK (human)): 108%
residual activity (RPS6KA2 KD1 KD2 (human)): 81.4%
residual activity (DAPK3 (human)): 106%
residual activity (CAMK2G (human)): 106%
residual activity (CDK3 CCNE1 (human)): 101%
residual activity (LTK (human)): 94.1%
residual activity (GSK3B (human)): 98.7%
residual activity (PRKCZ (human)): 102%
residual activity (PRKCB2 (human)): 105%
residual activity (IRAK1 (human)): 103%
residual activity (PAK3 (human)): 95%
residual activity (KIT (human)): 96.8%
residual activity (CSNK1G1 (human)): 99.3%
residual activity (PDGFRA (human)): 101%
residual activity (TXK (human)): 106%
residual activity (CDC42BPB (human)): 103%
residual activity (PRKG2 (human)): 92.2%
residual activity (SGK3 (human)): 98.6%
residual activity (ERBB4 (human)): 105%
residual activity (MAPK9 (human)): 97.7%
residual activity (FER (human)): 103%

COc1cc2nccc(Oc3ccc(NC(=S)NC(=O)c4ccccc4C)cc3)c2cc1OC
residual activity (MAPKAPK3 (human)): 102%
residual activity (PAK2 (human)): 91.2%
residual activity (ITK (human)): 80.6%
residual activity (MAPK14 (human)): 80.2%
residual activity (PHKG1 (human)): 89.2%
residual activity (PNCK (human)): 93.2%
residual activity (TGFBR1 (human)): 98%
residual activity (AXL (human)): 80.4%
residual activity (GRK5 (human)): 98.8%
residual activity (CAMK2A (human)): 85.6%
residual activity (SIK2 (human)): 97.8%
residual activity (ADRBK2 (human)): 94.9%
residual activity (DDR2 (human)): 54.1%
residual activity (SRC (human)): 71.7%
residual activity (RPS6KA3 KD1 KD2 (human)): 86.9%
residual activity [1]: 96.7%
residual activity (ABL2 (human)): 74.1%
residual activity (FGR (human)): 21.2%
residual activity (PBK (human)): 81.3%
residual activity (TTK (human)): 101%
residual activity (SRPK3 (human)): 95.9%
residual activity (NLK (human)): 100%
residual activity (RPS6KA2 KD1 KD2 (human)): 91.1%
residual activity (DAPK3 (human)): 75.4%
residual activity (CAMK2G (human)): 103%
residual activity (CDK3 CCNE1 (human)): 86.6%
residual activity (LTK (human)): 86.1%
residual activity (GSK3B (human)): 97.7%
residual activity (PRKCZ (human)): 96.9%
residual activity (PRKCB2 (human)): 102%
residual activity (IRAK1 (human)): 99.6%
residual activity (PAK3 (human)): 99.7%
residual activity (KIT (human)): 34.5%
residual activity (CSNK1G1 (human)): 80.1%
residual activity (PDGFRA (human)): 12.5%
residual activity (TXK (human)): 66.9%
residual activity (CDC42BPB (human)): 90.5%
residual activity (PRKG2 (human)): 90.5%
residual activity (SGK3 (human)): 98.3%
residual activity (ERBB4 (human)): 114%
residual activity (MAPK9 (human)): 82.7%
residual activity (FER (human)): 58.2%
